We go through 34 compounds from patent US11414424B2, “Cardiac sarcomere inhibitors” (Cytokinetics, Inc., priority 2018, dated 2022).

Some results are limits rather than exact numbers.

The test has as its system bovine cardiac myofibrils. In words: Myofibril assay: PK/LDH-coupled steady-state ATPase activity of skinned bovine cardiac myofibrils. The test is classed as biochemical. The conditions noted are these: Ca2+ activating to 75% of maximal rate. In short, it runs like this:
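Steady-state ATPase of detergent-skinned bovine left-ventricular myofibrils (1 mg/mL), PK/LDH-coupled NADH read at 340 nm, in PIPES/MgCl2 buffer pH 6.8 with 50 μM ATP, 0.6 mM EGTA and CaCl2 set for 50% or 75% activation. Inhibition of activity measured.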
As to `CC(=O)N1CC2(C1)C(=O)N([C@H]1CC[C@H](C)CC1)CC(=O)N2Cc1ccc(C(F)(F)F)cc1` [Compound 322, 2-acetyl-8-((1r,4r)-4-methylcyclohexyl)-5-(4-(trifluoromethyl)benzyl)-2,5,8-triazaspiro[3.5]-nonane-6,9-dione], the “CDMF75 IC15” value amounted to 10.8 µM.

For the compound `CCC1CCC(N2CC(=O)N(Cc3ccc(C(F)(F)F)cc3)C3(CN(C(C)=O)C3)C2=O)CC1` (stereo not shown) [Compound 323, 2-acetyl-8-(4-ethylcyclo-hexyl)-5-(4-(trifluoro-methyl)benzyl)-2,5,8-triazaspiro[3.5]nonane-6,9-dione], the “CDMF75 IC15” value is 6.4 µM.

For `CC(=O)N1CC2(C1)C(=O)N(C1CCC(C(F)F)CC1)CC(=O)N2Cc1ccc(C(F)(F)F)cc1` (stereo not shown) [Compound 324, 2-acetyl-8-(4-(difluoro-methyl)cyclohexyl)-5-(4-(trifluoromethyl)benzyl)-2,5,8-triazaspiro[3.5]-nonane-6,9-dione], the “CDMF75 IC15” value was 11.5 µM.

For the compound `CC(=O)N1CC2(C1)C(=O)N([C@H]1CC[C@H](C#N)CC1)CC(=O)N2Cc1ccc(C(F)(F)F)cc1` [Compound 325, (1r,4r)-4-(2-acetyl-6,9-dioxo-5-(4-(trifluoromethyl)benzyl)-2,5,8-triazaspiro[3.5]nonan-8-yl)cyclohexane-l-carbonitrile], the “CDMF75 IC15” value was 22.8 µM.

Take `CC(=O)N1CC2(C1)C(=O)N(C1CCCCCC1)CC(=O)N2Cc1ccc(C(F)(F)F)cc1` [Compound 326, 2-acetyl-8-cycloheptyl-5-(4-(trifluoromethyl)benzyl)-2,5,8-triazaspiro[3.5]-nonane-6,9-dione]: the “CDMF75 IC15” value came to 23.7 µM.

In the case of `CC(C)N1CC(=O)N(Cc2ccc(C(F)(F)F)cc2)C2(CCN(c3ccccc3)C2=O)C1=O` (stereo not shown) [Compound 327, 9-isopropyl-2-phenyl-6-(4-(trifluoromethyl)benzyl)-2,6,9-triazaspiro[4.5]decane-1,7,10-trione], the “CDMF75 IC15” value worked out at 9.8 µM.

On to `CC(C)N1CC(=O)N([C@@H](C)c2ccc(C(F)(F)F)cc2)C2(CN(c3ccccc3)C2)C1=N` [Compound 328, (S)-9-imino-8-isopropyl-2-phenyl-5-(1-(4-(trifluoromethyl)phenyl)ethyl)-2,5,8-triazaspiro[3.5]nonan-6-one], for which the “CDMF75 IC15” value was determined as 19.3 µM.

With `CC(C)N1C(=O)C2(CN(c3ccccc3)C2)N(Cc2ccc(Cl)cc2)C(=O)C1C` (stereo not shown) [Compound 329, 5-(4-chlorobenzyl)-8-isopropyl-7-methyl-2-phenyl-2,5,8-triazaspiro-[3.5]nonane-6,9-dione], the “CDMF75 IC15” value amounted to 9.3 µM.

With `CC(C)N1CC(=O)N(Cc2ccc(Cl)cc2)C2(CCN(c3cnn(C)c3)C2=O)C1=O` (stereo not shown) [Compound 330, 6-(4-chlorobenzyl)-9-isopropyl-2-(1-methyl-1H-pyrazol-4-yl)-2,6,9-triazaspiro[4.5]decane-1,7,10-trione], the “CDMF75 IC15” value stood at 10.7 µM.

Regarding `CC(C)N1CC(=O)N(Cc2ccc(Cl)cc2)C2(CC(=O)N(c3ccccc3)C2)C1=O` (stereo not shown) [Compound 331, 6-(4-chlorobenzyl)-9-isopropyl-2-phenyl-2,6,9-triazaspiro[4.5]decane-3,7,10-trione], the “CDMF75 IC15” value is 30.9 µM.

With `CC(C)N1CC(=O)N(Cc2ccc(Cl)cc2)C2(CC(=O)N(c3ccccn3)C2)C1=O` (stereo not shown) [Compound 332, 6-(4-chlorobenzyl)-9-isopropyl-2-(pyridin-2-yl)-2,6,9-triazaspiro[4.5]decane-3,7,10-trione], the “CDMF75 IC15” value was found to be 16.6 µM.

With `Cc1cc(N2CCC3(C2=O)C(=O)N(C(C)C)CC(=O)N3Cc2ccc(Cl)cc2)ccn1` (stereo not shown) [Compound 333, 6-(4-chlorobenzyl)-9-isopropyl-2-(2-methyl-pyridin-4-yl)-2,6,9-triazaspiro[4.5]decane-1,7,10-trione], the “CDMF75 IC15” value worked out at 16.6 µM.

`CNC(=O)N1CCC2(C1)C(=O)N(Cc1ccc(OC)cc1)CC(=O)N2Cc1ccc(Cl)cc1` (stereo not shown) [Compound 334, 6-(4-chlorobenzyl)-9-(4-methoxybenzyl)-N-methyl-7,10-dioxo-2,6,9-triazaspiro[4.5]decane-2-carboxamide]: the “CDMF75 IC15” value was 8.0 µM.

On to `CNC(=O)N1CC2(C1)C(=O)N(Cc1ccc(C(F)(F)F)cc1)CC(=O)N2Cc1ccc(C(F)(F)F)cc1` [Compound 335, N-methyl-6,9-dioxo-5,8-bis(4-(trifluoromethyl)benzyl)-2,5,8-triazaspiro[3.5]nonane-2-carboxamide], for which the “CDMF75 IC15” value came out at 12.2 µM.

As to `CNC(=O)N1CC2(C1)C(=O)N(Cc1ccc(C#N)cc1)CC(=O)N2Cc1ccc(C(F)(F)F)cc1` [Compound 336, 8-(4-cyanobenzyl)-N-methyl-6,9-dioxo-5-(4-(trifluoromethyl)benzyl)-2,5,8-triazaspiro[3.5]nonane-2-carboxamide], the “CDMF75 IC15” value stood at 1.1 µM.

For the compound `CNC(=O)N1CC2(C1)C(=O)N(Cc1ccc(Cl)cc1)CC(=O)N2Cc1ccc(C(F)(F)F)cc1` [Compound 337, 8-(4-chlorobenzyl)-N-methyl-6,9-dioxo-5-(4-(trifluoromethyl)benzyl)-2,5,8-triazaspiro[3.5]-nonane-2-carboxamide], the “CDMF75 IC15” value amounted to 1.63 µM.

In the case of `CNC(=O)N1CC2(C1)C(=O)N(C(C)c1ccc(C#N)cc1)CC(=O)N2Cc1ccc(C(F)(F)F)cc1` (stereo not shown) [Compound 338, 8-(1-(4-cyanophenyl)ethyl)-N-methyl-6,9-dioxo-5-(4-(trifluoromethyl)benzyl)-2,5,8-triazaspiro[3.5]nonane-2-carboxamide], the “CDMF75 IC15” value is 1.51 µM.

`CC(=O)N1CC2(C1)C(=O)N(c1ccc(Cl)cc1F)CC(=O)N2[C@@H](C)c1ccc(C(F)(F)F)cc1` [Compound 340, (S)-2-acetyl-8-(4-chloro-2-fluorophenyl)-5-(1-(4-(trifluoromethyl)phenyl)-ethyl)-2,5,8-triazaspiro-[3.5]nonane-6,9-dione]: the “CDMF75 IC15” value came out at 0.7 µM.

On to `CC(=O)N1CC2(C1)C(=O)N(c1ccc(Cl)cc1F)C(C)C(=O)N2Cc1ccc(C(F)(F)F)cc1` (stereo not shown) [Compound 341, 2-acetyl-8-(4-chloro-2-fluorophenyl)-7-methyl-5-(4-(trifluoromethyl)benzyl)-2,5,8-triazaspiro[3.5]nonane-6,9-dione], for which the “CDMF75 IC15” value was 5.4 µM.

Consider `COCC1C(=O)N(Cc2ccc(Cl)cc2)C2(CN(c3ccc(C#N)cn3)C2)C(=O)N1C(C)C` (stereo not shown) [Compound 347, 6-(5-(4-chlorobenzyl)-8-isopropyl-7-(methoxymethyl)-6,9-dioxo-2,5,8-triazaspiro[3.5]nonan-2-yl)nicotinonitrile], for which the “CDMF75 IC15” value turned out to be 26.4 µM.

With `N#Cc1ccc(N2CCC3(C2)C(=O)N(c2ccc([N+](=O)[O-])cc2)CC(=O)N3Cc2ccc(Cl)cc2)nc1` (stereo not shown) [Compound 348, 6-(6-(4-chlorobenzyl)-9-(4-nitrophenyl)-7,10-dioxo-2,6,9-triazaspiro[4.5]decan-2-yl)nicotinonitrile], the “CDMF75 IC15” value stood at 0.7 µM.

Regarding `CNC(=O)N1CCC2(C1)C(=O)N(c1ccc([N+](=O)[O-])cc1)CC(=O)N2Cc1ccc(Cl)cc1` (stereo not shown) [Compound 349, 6-(4-chlorobenzyl)-N-methyl-9-(4-nitrophenyl)-7,10-dioxo-2,6,9-triazaspiro[4.5]decane-2-carboxamide], the “CDMF75 IC15” value was determined as 0.9 µM.

For `N#Cc1ccc(N2CC3(C2)C(=O)N(c2ccccc2)CC(=O)N3Cc2ccc(C(F)(F)F)cc2)nc1` [Compound 350, 6-(6,9-dioxo-8-phenyl-5-(4-(trifluoromethyl)benzyl)-2,5,8-triazaspiro[3.5]nonan-2-yl)nicotinonitrile], the “CDMF75 IC15” value came out at 5.5 µM.

As to `CC(C)NC(=O)N1CCC2(C1)C(=O)N(C(C)C)CC(=O)N2Cc1ccc(Cl)cc1` (stereo not shown) [Compound 383, 6-(4-chlorobenzyl)-N,9-diisopropyl-7,10-dioxo-2,6,9-triazaspiro[4.5]-decane-2-carboxamide], the “CDMF75 IC15” value was over 39 µM.

Turning to `CC(C)N1CC(=O)N(Cc2ccc(Cl)cc2)C2(CCN(C(=O)Nc3ccccn3)C2)C1=O` (stereo not shown) [Compound 385, 6-(4-chlorobenzyl)-9-isopropyl-7,10-dioxo-N-(pyridin-2-yl)-2,6,9-triazaspiro[4.5]decane-2-carboxamide], the “CDMF75 IC15” value was over 39 µM.

In the case of `COCCNC(=O)N1CCC2(C1)C(=O)N(C(C)C)CC(=O)N2Cc1ccc(Cl)cc1` (stereo not shown) [Compound 387, 6-(4-chlorobenzyl)-9-isopropyl-N-(2-methoxy-ethyl)-7,10-dioxo-2,6,9-triazaspiro[4.5]decane-2-carboxamide], the “CDMF75 IC15” value was over 39 µM.

Turning to `CC(C)(C)OC(=O)[C@H]1C[C@]2(C1)C(=O)N(c1ccc(C#N)cc1F)CC(=O)N2Cc1ccc(C(F)(F)F)cc1` [Compound 429B], the “CDMF75 IC15” value was 0.2 µM.

As for `Cc1noc([C@H]2C[C@]3(C2)C(=O)N(c2ccc(C#N)cc2F)CC(=O)N3Cc2ccc(C(F)(F)F)cc2)n1` [Compound 432B], the “CDMF75 IC15” value worked out at 0.5 µM.

As to `Cc1cnc(C2CC3(C2)C(=O)N(c2ccc(C#N)cc2F)CC(=O)N3Cc2ccc(C(F)(F)F)cc2)o1` (stereo not shown) [Compound 436B], the “CDMF75 IC15” value was found to be 0.3 µM.

Consider `Cc1coc([C@H]2C[C@]3(C2)C(=O)N(c2ccc(C#N)cc2F)CC(=O)N3Cc2ccc(C(F)(F)F)cc2)n1` [Compound 442B], for which the “CDMF75 IC15” value is 0.4 µM.

As to `N#Cc1ccc(N2CC(=O)N(Cc3ccc(C(F)(F)F)cc3)[C@]3(C[C@H](C(=O)N4CCOCC4)C3)C2=O)c(F)c1` [Compound 444B], the “CDMF75 IC15” value worked out at 0.2 µM.

On to `N#Cc1ccc(N2CC(=O)N(Cc3ccc(C(F)(F)F)cc3)[C@]3(C[C@H](c4nnc(C(F)F)o4)C3)C2=O)c(F)c1` [Compound 454B], for which the “CDMF75 IC15” value is 0.1 µM.

As for `N#Cc1ccc(N2CC(=O)N(Cc3ccc(C(F)(F)F)cc3)[C@]3(C[C@H](C(=O)NC4CC4)C3)C2=O)c(F)c1` [Compound 459, (2r,4r)-8-(4-cyano-2-fluoro-phenyl)-N-cyclopropyl-6,9-dioxo-5-(4-(trifluoromethyl)benzyl)-5,8-diazaspiro[3.5]nonane-2-carboxamide], the “CDMF75 IC15” value is 4.5 µM.

`CNC(=O)N[C@H]1C[C@]2(C1)C(=O)N(c1ccc(C#N)cc1F)CC(=O)N2Cc1ccc(C(F)(F)F)cc1` [Compound 463B]: the “CDMF75 IC15” value is 0.4 µM.
